Literature values as cited in US6365621B1, “Remedies or preventives for intractable epilepsy” (Pharmaceutical Co., Ltd., priority 1998, dated 2002).

Tested on: kainate-induced amygdala seizures
Settings: high concentration; cited from earlier work

For NS(=O)(=O)Cc1noc2ccccc12 [zonisamide], the “Suppression of status epilepticus of kainate-induced amygdala seizure in acute phase” value is given as “proven suppression effect”.
